Test results taken from patent US20100240868A1, “Composition and Method for a Producing Stable Amyloid Beta Oligomers of High Molecular Weight” (priority 2005, published 2010).

Experiments:
[1] = SDS-PAGE analysis of glutaraldehyde cross-linked samples (oligomer formation and storage stability); format: physicochemical
Method: The soluble Aβ oligomers were cross-linked with glutaraldehyde, incubated for 10 minutes at room temperature and then quenched with 1M glycine, 1M Tris-HCl pH 7.5. Cross-linked samples were then diluted to a final concentration of 0.02 μg/μL, in Tris-glycine SDS sample buffer. For analysis, 0.28 μg Aβ (nominal concentration) in either monomeric or oligomeric form was separated by electrophoresis at 125V for about 100 minutes using a 4% to 20% tris-glycine gel (Invitrogen, Carlsbad, Calif.). Gels were then silver stained to visualize the size distribution of the soluble Aβ oligomers. For glutaraldehyde concentration optimization, HFIP-dried Aβ42 or HFIP-dried Aβ40 was solubilized in DMSO (20 mg/mL, 4.4 mM), added to 50 mM phosphate, pH 9.0, to a final concentration of 1.8 mg/mL (400 μM) and incubated at 4° C. overnight, protected from light. […]
As set forth above in Examples 1-4, Aβ42 forms soluble Aβ oligomers in 50 mM phosphate, pH 9.0 buffer during storage at 2° C. to 8° C. However, the optimal concentration for formation, biological activity and storage stability of these oligomeric species during storage was not determined. […] These cross-linked species were not disrupted in the presence of SDS, and therefore, the appropriate size distribution could be determined by SDS-PAGE. […]

PC-12 cells = test: PC-12 MTT reduction assay; format: cell-based; conditions: for MTT reduction: PC-12 cells
Method: PC-12 cells were plated at 30,000 cells/well and allowed to grow overnight at 37° C./5% CO2. Soluble Aβ oligomers or vehicle were added to cells at concentrations of 1 μM and 5 μM. After a four hour incubation at 37° C./5% CO2, the MTT reduction assay was performed (Lambert et al., 2001, J. Neurochem. 79, 595-605). Briefly, MTT (10 μL, 5 mg/mL) was added to each well and allowed to incubate for four hours. A solubilization buffer (100 μL, 10% SDS in 0.01 N HCl) was added and the plate was incubated at 37° C./5% CO2 overnight. The assay was then quantified at 595 nm on a Tecan Spectrafluor Plus plate reader (Tecan Systems, San Jose, Calif.).
In this experiment, Aβ42 was prepared at concentrations of 1 mM, 850 μM, 650 μM, 450 μM, 250 μM and 100 μM in 50 mM phosphate pH 9.0 buffer as described in the Example 8. After 7 days of incubation at 4° C., samples were tested by the MTT assay to determine bioactivity.

| Substance | oligomer formation ([1]; 400 μM in 50 mM phosphate, pH 9.0, 24 hour incubation at 4° C.) | storage stability of oligomeric (150 kDa) species ([1]; stock concentration 450 μM in 50 mM phosphate, pH 9.0 buffer, 1, 4 and 7 days at 4° C., 0.5% glutaraldehyde cross-linking) | MTT reduction (PC-12 cells; stock concentrations 450 μM to 650 μM in 50 mM phosphate pH 9.0, 7 days at 4° C., test concentration 5 μM, 4 h incubation) | MTT reduction (PC-12 cells; stock concentrations below 450 μM and above 650 μM in 50 mM phosphate pH 9.0, 7 days at 4° C., tested at 1 μM and 5 μM) | bioactivity after storage (PC-12 cells; stock concentrations of 450 μM to 650 μM in 50 mM phosphate, pH 9.0 buffer, storage at 2-8° C.) |
| --- | --- | --- | --- | --- | --- |
| Aβ40: HFIP-dried Aβ40 monomer peptide, solubilized in DMSO and incubated in 50 mM phosphate, pH 9.0 [reference compound] | primarily stays monomeric and does not form oligomers | – | – | – | – |
| Aβ peptide (1-42) [Aβ42] | – | can be stored for seven days at 4 °C | about 55% | 80-105% | remain bioactive for up to seven days |
